The text below walks through data of ChEMBL document CHEMBL1143219, “Proline bis-amides as potent dual orexin receptor antagonists” (Bioorg Med Chem Lett, 2008).

The target of data set [1] is T1, Orexin/Hypocretin receptor type 1 (Homo sapiens, UniProt O43613).
T1 sequence (O43613 whole entry): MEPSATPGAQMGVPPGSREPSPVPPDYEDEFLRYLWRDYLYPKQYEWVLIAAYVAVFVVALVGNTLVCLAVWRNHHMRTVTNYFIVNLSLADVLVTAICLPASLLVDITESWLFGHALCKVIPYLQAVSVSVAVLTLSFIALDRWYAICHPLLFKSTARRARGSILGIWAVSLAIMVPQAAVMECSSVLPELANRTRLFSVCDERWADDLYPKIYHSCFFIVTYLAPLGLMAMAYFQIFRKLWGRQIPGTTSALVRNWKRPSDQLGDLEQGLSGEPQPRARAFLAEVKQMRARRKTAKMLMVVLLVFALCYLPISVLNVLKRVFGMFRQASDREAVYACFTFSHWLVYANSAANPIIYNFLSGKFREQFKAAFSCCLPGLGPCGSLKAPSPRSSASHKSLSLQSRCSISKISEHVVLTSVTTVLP
The data set is described as follows: Displacement of [3H](S)-1-[2-(1-methyl-1H-benzoimidazol-2-ylsulfanyl)-acetyl]-pyrrolidine-2-carboxylic acid biphenyl-2-ylamide from human OX1R expressed in CHO cells. The format is cell-based. For orientation: Displacement assays read how much labelled ligand stays bound in the presence of the test substance.

Data set [2] deals with T2, Orexin receptor type 2 (Homo sapiens, UniProt O43614).
T2 sequence (O43614 whole entry): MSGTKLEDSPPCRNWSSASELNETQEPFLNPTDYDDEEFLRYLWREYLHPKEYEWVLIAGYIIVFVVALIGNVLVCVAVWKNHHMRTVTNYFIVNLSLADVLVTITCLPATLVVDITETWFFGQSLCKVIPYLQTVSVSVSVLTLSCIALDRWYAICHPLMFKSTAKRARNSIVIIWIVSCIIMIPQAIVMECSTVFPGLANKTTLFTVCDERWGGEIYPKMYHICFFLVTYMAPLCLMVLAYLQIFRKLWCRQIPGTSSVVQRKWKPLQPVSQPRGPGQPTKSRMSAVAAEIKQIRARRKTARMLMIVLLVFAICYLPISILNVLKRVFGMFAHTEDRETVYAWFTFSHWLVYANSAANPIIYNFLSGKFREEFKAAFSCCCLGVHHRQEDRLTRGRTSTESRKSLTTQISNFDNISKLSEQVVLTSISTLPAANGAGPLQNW
The experiment in a line: Displacement of [3H](S)-N-(2-(1H-pyrrol-1-yl)phenyl)-1-(2-(1-methyl-1H-benzo[d]imidazol-2-ylthio)acetyl)pyrrolidine-2-carboxamide from human OX2R expressed in CHO cells. It counts as cell-based.

In data set [3] the target is T3, Orexin receptor type 2 (Homo sapiens) (UniProt O43614).
T3 sequence (whole entry): T2 sequence (O43614 whole entry)
The experiment in a line: Antagonist activity at human OX2R expressed in CHOK1 cells assessed as effect on calcium mobilization. The format is functional, cell-based. The following applies: CHO-K1.

Data set [4] is described as follows: Drug level in rat cerebrospinal fluid at 100 mg/kg, ip after 30 mins. It counts as ADME, organism-based. Also noted: dose 100 mg/kg, route intraperitoneal. The following applies: read-out: Drug uptake.
Data set [5] concerns Rattus norvegicus. The data set is described as follows: Inhibition of ADL-orexin-B-induced increase in locomotion activity in ip dosed rat. It counts as functional, organism-based.
Data set [6] can be described thus: Oral bioavailability in rat. The settings on record: in vivo. The format is ADME, organism-based.
Data set [7] is described as follows: Half life in rat. The format is ADME, organism-based. The following applies: in vivo.
For data set [8], the target named is T4, Thromboxane A2 receptor (Homo sapiens) (UniProt P21731).
T4 sequence (whole entry): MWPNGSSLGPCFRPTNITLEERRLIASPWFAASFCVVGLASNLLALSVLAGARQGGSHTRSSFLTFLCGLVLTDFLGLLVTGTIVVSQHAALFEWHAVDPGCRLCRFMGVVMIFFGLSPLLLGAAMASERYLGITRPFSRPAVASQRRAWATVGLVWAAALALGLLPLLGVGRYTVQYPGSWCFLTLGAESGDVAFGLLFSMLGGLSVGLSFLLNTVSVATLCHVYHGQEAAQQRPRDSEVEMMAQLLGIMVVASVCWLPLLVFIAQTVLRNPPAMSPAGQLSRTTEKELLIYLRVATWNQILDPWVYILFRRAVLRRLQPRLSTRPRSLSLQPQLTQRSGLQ
The data set is described as follows: Inhibition of thromboxane A2 receptor.

Data set [9] can be described thus: Partition coefficient, log P of the compound. The format is physicochemical. The following applies: octanol/water.
Data set [10] addresses Synaptic vesicular amine transporter (Homo sapiens) (UniProt Q05940). The experiment in a line: Inhibition of monoamine transporter.
Data set [11] in a line: Drug level in rat brain at 100 mg/kg, ip after 30 mins. Details: dose 100 mg/kg, route intraperitoneal. The following applies: read-out: Drug uptake. It counts as ADME, organism-based.
A short description of data set [12]: Inhibition of prostanoid receptor.
Data set [13] can be described thus: Clearance in rat. It counts as ADME, organism-based. The settings on record: in vivo.
Data set [14] is described as follows: Drug level in rat plasma at 100 mg/kg, ip after 30 mins. The format is ADME, organism-based. Also noted: dose 100 mg/kg, route intraperitoneal.
Data set [15] addresses T5, Orexin/Hypocretin receptor type 1 (Rattus norvegicus) (UniProt P56718).
T5 sequence (whole entry): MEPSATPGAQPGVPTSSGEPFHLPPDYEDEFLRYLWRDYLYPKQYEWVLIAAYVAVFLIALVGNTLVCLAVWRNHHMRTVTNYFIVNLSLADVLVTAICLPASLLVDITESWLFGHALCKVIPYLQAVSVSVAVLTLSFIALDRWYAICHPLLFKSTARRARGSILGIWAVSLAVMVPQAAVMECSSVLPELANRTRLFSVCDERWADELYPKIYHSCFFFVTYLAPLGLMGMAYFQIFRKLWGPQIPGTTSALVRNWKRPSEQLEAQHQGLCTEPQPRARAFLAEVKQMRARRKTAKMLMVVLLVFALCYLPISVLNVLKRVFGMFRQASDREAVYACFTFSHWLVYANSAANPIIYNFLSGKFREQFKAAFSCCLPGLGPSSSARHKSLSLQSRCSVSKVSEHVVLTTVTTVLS
The data set is described as follows: Antagonist activity at rat OX1R assessed as effect on calcium mobilization. The format is functional. For orientation: Calcium assays in cells follow changes in intracellular calcium, usually with a dye or a luminescent sensor.

Data set [16] can be described thus: Inhibition of sodium channel at site 2.
Data set [17] addresses T6, Thyrotropin-releasing hormone receptor (Homo sapiens) (UniProt P34981).
T6 sequence (whole entry): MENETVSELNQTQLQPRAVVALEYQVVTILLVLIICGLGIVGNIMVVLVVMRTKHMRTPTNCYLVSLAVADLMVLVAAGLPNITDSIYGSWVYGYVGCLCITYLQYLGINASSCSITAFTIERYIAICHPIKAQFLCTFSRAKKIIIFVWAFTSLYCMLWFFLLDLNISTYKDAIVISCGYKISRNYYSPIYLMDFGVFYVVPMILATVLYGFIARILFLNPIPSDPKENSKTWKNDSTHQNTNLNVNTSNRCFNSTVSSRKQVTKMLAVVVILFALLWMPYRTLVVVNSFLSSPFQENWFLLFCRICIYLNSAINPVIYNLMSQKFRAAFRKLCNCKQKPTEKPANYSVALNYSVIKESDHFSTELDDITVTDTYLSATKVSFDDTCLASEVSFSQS
The data set is described as follows: Inhibition of TRH receptor.

Each structure is given as a SMILES string. pKi: −log10 of the molar value.

Chain of Synaptic vesicular amine transporter (Homo sapiens) (Q05940 whole entry): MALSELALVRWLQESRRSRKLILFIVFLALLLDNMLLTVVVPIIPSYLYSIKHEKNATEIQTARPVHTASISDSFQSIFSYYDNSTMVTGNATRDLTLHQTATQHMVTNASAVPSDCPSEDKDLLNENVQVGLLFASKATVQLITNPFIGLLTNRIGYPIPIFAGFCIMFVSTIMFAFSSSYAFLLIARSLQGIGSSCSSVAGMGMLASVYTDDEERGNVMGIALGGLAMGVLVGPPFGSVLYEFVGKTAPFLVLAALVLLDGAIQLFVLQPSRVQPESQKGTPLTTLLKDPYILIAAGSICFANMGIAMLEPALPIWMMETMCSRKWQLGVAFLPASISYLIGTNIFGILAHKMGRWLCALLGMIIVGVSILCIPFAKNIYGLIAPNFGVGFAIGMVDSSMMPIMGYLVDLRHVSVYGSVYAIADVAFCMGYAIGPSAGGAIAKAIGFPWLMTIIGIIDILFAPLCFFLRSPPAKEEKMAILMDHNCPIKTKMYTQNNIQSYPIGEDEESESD

With `O=C(Nc1ccccc1-n1cccc1)[C@@H]1CCCN1C(=O)CSc1nc2ccccc2s1`, the figures for the pKi in data set [1] and in data set [2] were 7.41 and 8.70, respectively. Also, in data set [3], the Activity amounted to 11 nM.

As to `O=C(Nc1ccccc1Oc1ccccc1)[C@@H]1CCCN1C(=O)CSc1nc2ccccc2[nH]1`, the results for the pKi in data set [1] and in data set [2] were 7.16 and 8.52, respectively. For the same molecule, in data set [3], the Activity was found to be 16 nM.

For the molecule `O=C(Nc1ccccc1-n1cccc1)[C@@H]1CCCN1C(=O)CSc1nc2ccccc2[nH]1`, the pKi in data set [1] is 7.55; in data set [2] it was 9.00. Further, the Activity in data set [3] stood at 6 nM.

As to `COc1ccccc1-c1ccccc1NC(=O)[C@@H]1CCCN1C(=O)CCc1nc2ccccc2[nH]1`, the values for the pKi in data set [1] and in data set [2] were 7.07 and 8.70, respectively. For the same molecule, the Activity in [3] came out at 5 nM.

As for `Cc1ccc2nc(SCC(=O)N3CCC[C@H]3C(=O)Nc3ccccc3-n3cccc3)n(C)c2c1`, the pKi in data set [1] is 8.70; in [2] it was 10.00. Also, in data set [3], the Activity came to 8 nM.

In the case of `O=C(Nc1ccccc1-c1ccccc1F)[C@@H]1CCCN1C(=O)CCc1nc2ccccc2[nH]1`, the negative-log Ki (pKi) in [1] was 7.57; in [2], 8.52. In addition, the Activity in data set [3] stood at 4 nM.

For the molecule `O=C(Nc1ccccc1-c1ccccc1)[C@@H]1CCCN1C(=O)CCc1nc2ccccc2[nH]1`, the pKi in data set [1] was 7.40; in data set [2], 8.22. The Activity in data set [3] was determined as 20 nM.

On to `O=C(Nc1ccc(-c2ccccc2)cc1)[C@@H]1CCCN1C(=O)CSc1nc2ccccc2[nH]1`, for which the pKi in data set [1] is 5.64; in [2], 7.96. Besides, the Activity in [3] was 143 nM.

On to `O=C(Nc1ccccc1-c1ccccc1)[C@@H]1CCCN1C(=O)CSc1nc2ccccc2[nH]1`, for which the results for the pKi in data set [1] and in data set [2] were 8.00 and 9.22, respectively. The Activity in data set [3] stood at 7 nM.

For the molecule `O=C(Nc1ccccc1-n1cccc1)[C@H]1CCCN1C(=O)CSc1nc2ccccc2[nH]1`, the pKi in data set [1] is 5.60; in data set [2], 6.88.

On to `O=C(Nc1ccccc1)[C@@H]1CCCN1C(=O)CSc1nc2ccccc2[nH]1`, for which the pKi in data set [1] is 5.85; in data set [2], 6.25. Besides, in [3], the Activity came to 4050 nM.

With `Cn1c(CCC(=O)N2CCC[C@H]2C(=O)Nc2ccccc2-n2cccc2)nc2ccccc21`, the pKi in data set [1] was 7.31; in [2] it was 8.70. Besides, the Activity in data set [3] stood at 3 nM.

With `Cc1ccc2nc(SCC(=O)N3CCC[C@H]3C(=O)Nc3ccccc3-n3cccc3)[nH]c2c1`, the pKi in data set [1] was 8.52; in [2], 9.70.

Turning to `Cc1ccc2[nH]c(SCC(=O)N3CCC[C@H]3C(=O)Nc3ccccc3-n3cccc3)nc2c1`, the Activity in data set [3] amounted to 2 nM.

`O=C(Nc1ccccc1-n1cccc1)[C@@H]1CCCN1C(=O)CSc1nc2ccccc2o1`: the values for the pKi in [1] and in data set [2] were 6.92 and 8.10, respectively. In addition, in [3], the Activity is 28 nM.

With `Cn1c(SCC(=O)N2CCC[C@H]2C(=O)Nc2ccccc2-c2ccccc2)nc2ccccc21`, the concentration at 0.5 h in data set [4] was 43 nM; in [11] it was 2370 nM; in data set [14], 3500 nM. For the same molecule, in data set [2], the pKi is 9.70. Further, the Activity entry in data set [5] is “Dose-dependent effect”; in data set [8] it was below 10 µM; in data set [10], below 10 µM; in [3], 4 nM; in data set [12], below 10 µM. Moreover, the bioavailability in data set [6] came to 11%. For the same molecule, the half-life in data set [7] is 18 min. The logP in data set [9] amounted to 3.4. In [13], this molecule gave a clearance of 3.7 mL/min/kg.

Take `O=C(Nc1cccc(-c2ccccc2)c1)[C@@H]1CCCN1C(=O)CSc1nc2ccccc2[nH]1`: the pKi was 6.30 in data set [1] and 6.55 in data set [2]. The Activity in data set [3] was found to be 2640 nM.

Consider `Cn1c(SCC(=O)N2CCC[C@H]2C(=O)Nc2ccccc2-n2cccc2)nc2ccccc21`, for which the pKi in data set [1] is 8.05; in data set [2] it was 9.52. In addition, the Activity in data set [3] turned out to be 2 nM.

Consider `O=C(Nc1ccccc1-n1cccc1)[C@@H]1CCCN1C(=O)CCc1nc2ccccc2[nH]1`, for which the results for the negative-log Ki (pKi) in data set [1] and in data set [2] were 6.89 and 7.96, respectively. For the same molecule, the Activity came out at 520 nM in [15] and 36 nM in data set [3].

Turning to `Cn1c(CCC(=O)N2CCC[C@H]2C(=O)Nc2ccccc2-c2ccccc2)nc2ccccc21`, the pKi in data set [1] is 7.82; in data set [2] it was 9.10. In data set [7], the half-life was 18 min. Also, the Activity is below 10 µM in data set [16], below 10 µM in data set [17] and 5 nM in data set [3].

Turning to `Cc1ccc2c(c1)nc(SCC(=O)N1CCC[C@H]1C(=O)Nc1ccccc1-n1cccc1)n2C`, the negative-log Ki (pKi) in data set [1] is 9.15; in [2], 10.05. Further, the Activity in data set [3] amounted to 8 nM.

What is called pKi is the negative decadic logarithm of the Ki, by convention in mol/L. A lower pKi goes with a large Ki. One may read the bioavailability as dose-corrected exposure relative to a reference, in per cent. The low end stands for little systemic uptake, the high end for much systemic uptake. What is called half-life is the time needed for the level to fall by half in the phase considered. A high value points to slow loss. For orientation: logP means a log measure of how a compound divides between an organic and an aqueous phase. Read a low logP as a more hydrophilic compound. As a reminder, the clearance is a measure of how efficiently the substance is removed, as volume per time.
